Structures can show the parent of a compound that is named as a salt.

Melting point data for 41 compounds are collected here from patent US6437138B1, “3-pyridyloxymethyl heterocyclic ether compounds useful in controlling chemical synaptic transmission” (priority 1996, dated 2002).

For the compound `CN1CC[C@H]1COc1cnc(Cl)c(-c2ccccc2)c1` (as salt: salt) [Example 68, 5-Phenyl-6-chloro-3-(1-methyl-2-(S)-azetidinylmethoxy)pyridine Hidrochloride], the melting point – broadly, the temperature of the solid-liquid transition – lay in the range of 187 to 188 °C.

Compound `Clc1ncc(OC[C@H]2CCCN2)cc1-c1ccccc1` (as salt: salt) [Example 70] displayed a melting point of 178 to 180 °C.

`C=Cc1cc(OC[C@@H]2CCN2C)cnc1C` (as salt: salt) [Example 196, 5-Ethenyl-6-methyl-3-(1-methyl-2-(S)-azetidinylmethoxy)pyridine] returned a melting point of 140 to 143 °C.

In the case of `C=Cc1cc(OC[C@@H]2CCN2C)cnc1F` (hydrate or solvate) [Example 204, 5-Ethenyl-6-fluoro-3-(1-methyl-2-(S)-azetidinylmethoxy)pyridine], the melting point fell in the range of 156 to 158 °C.

As for `C=Cc1cncc(OC[C@@H]2CCCN2C)c1.Cl.Cl` [Example 8, 5-Ethenyl-3-(1-methyl-2-(S)-pyrrolidinylmethoxy)pyridine Dihydrochloride], the melting point lay within 152 to 156 °C.

`CCCCCCCCC#Cc1cncc(OC[C@@H]2CCCN2C)c1.Cl.Cl` [Example 9, 5-(1-Decynyl)-3-(1-methyl-2-(S)-pyrrolidinylmethoxy)pyridine Dihydrochloride] had a melting point of 102 to 105 °C.

Take `Cl.Cl.Clc1ccc(-c2cncc(OC[C@@H]3CCCN3)c2)cc1` [Example 20, 5-(4-chlorophenyl)-3-(2-(S)-pyrrolidinylmethoxy)pyridine Dihydrochloride]: the melting point fell in the range of 180 to 182 °C.

Take `CC(=O)c1cc(OC[C@@H]2CCCN2)cnc1Cl.Cl.Cl` [Example 32, 5-Acetyl-6-chloro-3-(2-(S)-pyrrolidinylmethoxy)pyridine Dihydrochloride]: the melting point is 173 to 176 °C.

`CC(C)(C)C=CC=Cc1cc(OC[C@H]2CCCN2)cnc1Cl.Cl.Cl` [Example 77, 5-(5,5-Dimethyl-1,3-hexadienyl)-6-chloro-3-(2-(R)-pyrrolidinylmethoxy)pyridine Dihydrochloride] showed a melting point of 190 to 192 °C.

In the case of `CN1CCC[C@@H]1COc1cnc(Cl)c(C=CC=CC(C)(C)C)c1.Cl.Cl` [Example 78, 5-(5,5-Dimethyl-1,3-hexadienyl)-6-chloro-3-(1-methyl-2-(R)-pyrrolidinylmethoxy)pyridine Dihydrochloride], the melting point was 194 °C (dec.).

Take `CCCCCCC#Cc1cc(OC[C@H]2CCCN2C)cnc1Cl.Cl.Cl` [Example 80, 5-(1-Octynyl)-6-chloro-3-(1-methyl-2-(R)-pyrrolidinylmethoxy)pyridine Dihydrochloride]: the melting point was 114 to 116 °C (dec.).

Regarding `CN1CCC[C@@H]1COc1cnc(Cl)c(CCc2ccncc2)c1.Cl.Cl.Cl` [Example 83, 5-(2-(4-Pyridinyl)ethyl)-6-chloro-3-(1-methyl-2-(R)-pyrrolidinylmethoxy)pyridine Trihydrochloride], the melting point is 236 to 238 °C.

`Cl.Cl.Cl.Nc1cccc(-c2cncc(OC[C@H]3CCCN3)c2)c1` [Example 88, 5-(3-Aminophenyl)-3-(2-(R)-pyrrolidinylmethoxy)pyridine Trihydrochloride] came in with a melting point of 240 to 242 °C.

The compound `CC(C)(C)C=CC=Cc1cncc(OC[C@H]2CCCN2)c1.Cl.Cl` [Example 138, 5-(5,5-Dimethyl-1,3-hexadienyl)-3-(2-(R)-pyrrolidinylmethoxy)pyridine Dihydrochloride] showed a melting point of 145 to 147 °C.

In the case of `Cl.Cl.Clc1ccc(-c2cncc(OC[C@H]3CCCN3)c2)cc1` [Example 139, 5-(4-Chlorophenyl)-3-(2-(R)-pyrrolidinylmethoxy)pyridine Dihydrochloride], the melting point is 183 to 185 °C.

Compound `CCCCCCC#Cc1cc(OC[C@@H]2CCCN2)cnc1Cl.Cl.Cl` [Example 140, 6-Chloro-5-(1-octynyl)-3-(2-(S)-pyrrolidinylmethoxy)pyridine Dihydrochloride] showed a melting point of 133 to 135 °C.

The compound `CN1CCC[C@@H]1COc1cncc(-c2ccc(Cl)cc2)c1.Cl.Cl` [Example 141, 5-(4-Chlorophenyl)-3-(1-methyl-2-(R)-pyrrolidinylmethoxy)pyridine Dihydrochloride] registered a melting point of 223 to 225 °C.

`CCCCCCC#Cc1cncc(OC[C@H]2CCCN2C)c1.Cl.Cl` [Example 145, 3-(1-Methyl-2-(R)-pyrrolidinylmethoxy)-5-(1-octynyl)pyridine Dihydrochloride] came in with a melting point of 102 to 105 °C.

Consider `CCCCCCC#Cc1cc(OC[C@@H]2CCCN2C)cnc1Cl.Cl.Cl` [Example 146, 6-Chloro-3-(1-methyl-2-(S)-pyrrolidinylmethoxy)-5-(1-octynyl)pyridine Dihydrochloride], for which the melting point was 223 to 225 °C.

The compound `CN1CCC[C@H]1COc1cnc(Cl)c(-c2cccnc2)c1.Cl.Cl` [Example 147, 6-Chloro-3-(1-methyl-2-(S)-pyrrolidinylmethoxy)-5-(3-pyridyl)pyridine Dihydrochloride] registered a melting point of 108 to 110 °C.

On to `CN1CCC[C@H]1COc1cnc(Cl)c(C=CC=CC(C)(C)C)c1.Cl.Cl` [Example 149, 6-Chloro-5-(5,5-dimethyl-1,3-hexadienyl)-3-(1-methyl-2-(S)-pyrrolidinylmethoxy)pyridine Dihydrochloride], for which the melting point is 220 °C.

With `Cl.Cl.Clc1ccc(-c2cc(OC[C@@H]3CCCN3)cnc2Cl)cc1` [Example 150, 6-Chloro-5-(4-chlorophenyl)-3-(2-(S)-pyrrolidinylmethoxy)pyridine Dihydrochloride], the melting point lay within 86 to 89 °C.

`CN1CCC[C@H]1COc1cnc(Cl)c(-c2ccc(Cl)cc2)c1.Cl.Cl` [Example 151, 6-Chloro-5-(4-chlorophenyl)-3-(1-methyl-2-(S)-pyrrolidinylmethoxy)pyridine Dihydrochloride]: the melting point was in the range of 183 to 185 °C.

`CN1CCC[C@H]1COc1cnc(Cl)c(-c2cccs2)c1.Cl.Cl` [Example 153, 6-Chloro-3-(1-methyl-2-(S)-pyrrolidinylmethoxy)-5-(2-thienyl)pyridine Dihydrochloride] came in with a melting point of 160 to 163 °C.

In turn, `Cl.Nc1cccc(-c2cncc(OC[C@@H]3CCCN3)c2)c1` [Example 158, 5-(3-Aminophenyl)-3-(2-(S)-pyrrolidinylmethoxy)pyridine Hydrochlorid] had a melting point of 68 to 70 °C.

For `CC(C)(C)C=CC=Cc1cncc(OC[C@@H]2CCCN2)c1.Cl.Cl` [Example 160, 5-(5,5-Dimethyl-1,3-hexadienyl)3-(2-(S)-pyrrolidinylmethoxy)pyridine Dihydrochloride], the melting point is 92 to 94 °C.

`C=Cc1cncc(OC[C@@H]2CCN2)c1.Cl.Cl` [Example 162, 3-(2-(S)-Azetidinylmethoxy)-5-ethenylpyridine Dihydrochloride] returned a melting point of 88 to 90 °C.

Take `C=Cc1cncc(OC[C@@H]2CCCN2)c1.Cl.Cl` [Example 164, 5-Ethenyl-3-(2-(S)-pyrrolidinylmethoxy)pyridine Dihydrochloride]: the melting point was 97 °C (dec.).

For the compound `C=Cc1cc(OC[C@H]2CCCN2)cnc1Cl.Cl` [Example 167, 6-Chloro-5-ethenyl-3-(2-(R)-pyrrolidinylmethoxy)pyridine Hydrochloride], the melting point is 182 to 184 °C.

With `C=Cc1cc(OC[C@H]2CCCN2C)cnc1Cl.Cl` [Example 168, 6-Chloro-5-ethenyl-3-(1-methyl-2-(R)-pyrrolidinylmethoxy)pyridine Hydrochloride], the melting point is 173 to 175 °C.

Consider `Cl.Clc1ncc(OC[C@@H]2CCCN2)cc1-c1cncnc1` [Example 169, 6-Chloro-5-(5-pyrimidinyl)-3-(2-(S)-pyrrolidinylmethoxy)pyridine Hydrochloride], for which the melting point is 230 °C (dec.).

`CN1CC[C@H]1COc1cnc(Cl)c(-c2cncnc2)c1.Cl` [Example 170, 6-Chloro-3-(1-methyl-2-(S)-azetidinylmethoxy)-5-(5-pyrimidinyl)pyridine Hydrochloride] registered a melting point of 143 to 144 °C.

With `Cl.Cl.c1ncc(-c2cncc(OC[C@@H]3CCN3)c2)cn1` [Example 171, 3-(2-(S)-Azetidinylmethoxy)-5-(5-pyrimidinyl)pyridine Dihydrochloride], the melting point is 185 °C (dec.).

As for `Cl.Cl.Clc1ncc(OC[C@@H]2CCN2)cc1-c1cncnc1` [Example 172, 3-(2-(S)-Azetidinylmethoxy)-6-chloro-5-(5-pyrimidinyl)pyridine Dihydrochloride], the melting point is 144 °C (dec.).

On to `Cl.Clc1ncc(OC[C@H]2CCCN2)cc1-c1cncnc1` [Example 173, 6-Chloro-5-(5-pyrimidinyl)-3-(2-(R)-pyrrolidinylmethoxy)pyridine Hydrochloride], for which the melting point was 210 °C (dec.).

Regarding `Cl.Cl.Cl.c1ncc(-c2cncc(OC[C@@H]3CCCN3)c2)cn1` [Example 174, 5-(5-Pyrimidinyl)-3-(2-(S)-pyrrolidinylmethoxy)pyridine Trihydrochloride], the melting point fell in the range of 110 to 112 °C.

With `C#Cc1cc(OC[C@@H]2CCN2)cnc1Cl.Cl` [Example 175, 3-(2-(S)-Azetidinylmethoxy)-6-chloro-5-ethynylpyridine Hydrochloride], the melting point was 90 °C (dec.).

`C=CCc1cncc(OC[C@@H]2CCCN2C)c1.Cl.Cl` [Example 177, 5-Allyl-3-(1-methyl-2-(S)-pyrrolidinylmethoxy)pyridine Dihydrochloride] displayed a melting point of 65 to 67 °C.

Consider `C=CCc1cc(OC[C@@H]2CCN2)cnc1Cl.Cl` [Example 178, 5-Allyl-3-(2-(S)-azetidinylmethoxy)-6-chloropyridine Hydrochloride], for which the melting point is 90 to 92 °C.

In turn, `C=CCc1cc(OC[C@@H]2CCN2C)cnc1Cl.Cl` [Example 179, 5-Allyl-3-(1-methyl-2-(S)-azetidinylmethoxy)-6-chloropyridine Hydrochloride] registered a melting point of 109 to 111 °C.

`CN1CCC[C@H]1COc1cnc(Cl)c(-c2cncnc2)c1.Cl` [Example 182, 6-Chloro-3-(1-methyl-2-(S)-pyrrolidinylmethoxy)-5-(5-pyrimidinyl)pyridine Hydrochloride] had a melting point of 200 to 202 °C.
